Read-outs that look alike come from different tables or passages of the source. No end group written: not given here.

Data set [1] concerns RyR2. Set-up: method as in 2 sources, one per row (each row's own in cited_ref): ref Zahradnikova and Zahradnik, 1993 ||| ref Faltinova and Zahradnikova, 2013. As to conditions: ref Zahradnikova and Zahradnik, 1993; cited from earlier work.
Data set [2] deals with T1, RyR2 channel (Rattus norvegicus, UniProt B0LPN4).
T1 construct: RyR2 channels were incorporated from a suspension of microsomal vesicles of the SR; from tissue; host or cells: rat (Wistar Han) heart ventricles, cardiac SR microsomes
T1 sequence (B0LPN4 whole entry): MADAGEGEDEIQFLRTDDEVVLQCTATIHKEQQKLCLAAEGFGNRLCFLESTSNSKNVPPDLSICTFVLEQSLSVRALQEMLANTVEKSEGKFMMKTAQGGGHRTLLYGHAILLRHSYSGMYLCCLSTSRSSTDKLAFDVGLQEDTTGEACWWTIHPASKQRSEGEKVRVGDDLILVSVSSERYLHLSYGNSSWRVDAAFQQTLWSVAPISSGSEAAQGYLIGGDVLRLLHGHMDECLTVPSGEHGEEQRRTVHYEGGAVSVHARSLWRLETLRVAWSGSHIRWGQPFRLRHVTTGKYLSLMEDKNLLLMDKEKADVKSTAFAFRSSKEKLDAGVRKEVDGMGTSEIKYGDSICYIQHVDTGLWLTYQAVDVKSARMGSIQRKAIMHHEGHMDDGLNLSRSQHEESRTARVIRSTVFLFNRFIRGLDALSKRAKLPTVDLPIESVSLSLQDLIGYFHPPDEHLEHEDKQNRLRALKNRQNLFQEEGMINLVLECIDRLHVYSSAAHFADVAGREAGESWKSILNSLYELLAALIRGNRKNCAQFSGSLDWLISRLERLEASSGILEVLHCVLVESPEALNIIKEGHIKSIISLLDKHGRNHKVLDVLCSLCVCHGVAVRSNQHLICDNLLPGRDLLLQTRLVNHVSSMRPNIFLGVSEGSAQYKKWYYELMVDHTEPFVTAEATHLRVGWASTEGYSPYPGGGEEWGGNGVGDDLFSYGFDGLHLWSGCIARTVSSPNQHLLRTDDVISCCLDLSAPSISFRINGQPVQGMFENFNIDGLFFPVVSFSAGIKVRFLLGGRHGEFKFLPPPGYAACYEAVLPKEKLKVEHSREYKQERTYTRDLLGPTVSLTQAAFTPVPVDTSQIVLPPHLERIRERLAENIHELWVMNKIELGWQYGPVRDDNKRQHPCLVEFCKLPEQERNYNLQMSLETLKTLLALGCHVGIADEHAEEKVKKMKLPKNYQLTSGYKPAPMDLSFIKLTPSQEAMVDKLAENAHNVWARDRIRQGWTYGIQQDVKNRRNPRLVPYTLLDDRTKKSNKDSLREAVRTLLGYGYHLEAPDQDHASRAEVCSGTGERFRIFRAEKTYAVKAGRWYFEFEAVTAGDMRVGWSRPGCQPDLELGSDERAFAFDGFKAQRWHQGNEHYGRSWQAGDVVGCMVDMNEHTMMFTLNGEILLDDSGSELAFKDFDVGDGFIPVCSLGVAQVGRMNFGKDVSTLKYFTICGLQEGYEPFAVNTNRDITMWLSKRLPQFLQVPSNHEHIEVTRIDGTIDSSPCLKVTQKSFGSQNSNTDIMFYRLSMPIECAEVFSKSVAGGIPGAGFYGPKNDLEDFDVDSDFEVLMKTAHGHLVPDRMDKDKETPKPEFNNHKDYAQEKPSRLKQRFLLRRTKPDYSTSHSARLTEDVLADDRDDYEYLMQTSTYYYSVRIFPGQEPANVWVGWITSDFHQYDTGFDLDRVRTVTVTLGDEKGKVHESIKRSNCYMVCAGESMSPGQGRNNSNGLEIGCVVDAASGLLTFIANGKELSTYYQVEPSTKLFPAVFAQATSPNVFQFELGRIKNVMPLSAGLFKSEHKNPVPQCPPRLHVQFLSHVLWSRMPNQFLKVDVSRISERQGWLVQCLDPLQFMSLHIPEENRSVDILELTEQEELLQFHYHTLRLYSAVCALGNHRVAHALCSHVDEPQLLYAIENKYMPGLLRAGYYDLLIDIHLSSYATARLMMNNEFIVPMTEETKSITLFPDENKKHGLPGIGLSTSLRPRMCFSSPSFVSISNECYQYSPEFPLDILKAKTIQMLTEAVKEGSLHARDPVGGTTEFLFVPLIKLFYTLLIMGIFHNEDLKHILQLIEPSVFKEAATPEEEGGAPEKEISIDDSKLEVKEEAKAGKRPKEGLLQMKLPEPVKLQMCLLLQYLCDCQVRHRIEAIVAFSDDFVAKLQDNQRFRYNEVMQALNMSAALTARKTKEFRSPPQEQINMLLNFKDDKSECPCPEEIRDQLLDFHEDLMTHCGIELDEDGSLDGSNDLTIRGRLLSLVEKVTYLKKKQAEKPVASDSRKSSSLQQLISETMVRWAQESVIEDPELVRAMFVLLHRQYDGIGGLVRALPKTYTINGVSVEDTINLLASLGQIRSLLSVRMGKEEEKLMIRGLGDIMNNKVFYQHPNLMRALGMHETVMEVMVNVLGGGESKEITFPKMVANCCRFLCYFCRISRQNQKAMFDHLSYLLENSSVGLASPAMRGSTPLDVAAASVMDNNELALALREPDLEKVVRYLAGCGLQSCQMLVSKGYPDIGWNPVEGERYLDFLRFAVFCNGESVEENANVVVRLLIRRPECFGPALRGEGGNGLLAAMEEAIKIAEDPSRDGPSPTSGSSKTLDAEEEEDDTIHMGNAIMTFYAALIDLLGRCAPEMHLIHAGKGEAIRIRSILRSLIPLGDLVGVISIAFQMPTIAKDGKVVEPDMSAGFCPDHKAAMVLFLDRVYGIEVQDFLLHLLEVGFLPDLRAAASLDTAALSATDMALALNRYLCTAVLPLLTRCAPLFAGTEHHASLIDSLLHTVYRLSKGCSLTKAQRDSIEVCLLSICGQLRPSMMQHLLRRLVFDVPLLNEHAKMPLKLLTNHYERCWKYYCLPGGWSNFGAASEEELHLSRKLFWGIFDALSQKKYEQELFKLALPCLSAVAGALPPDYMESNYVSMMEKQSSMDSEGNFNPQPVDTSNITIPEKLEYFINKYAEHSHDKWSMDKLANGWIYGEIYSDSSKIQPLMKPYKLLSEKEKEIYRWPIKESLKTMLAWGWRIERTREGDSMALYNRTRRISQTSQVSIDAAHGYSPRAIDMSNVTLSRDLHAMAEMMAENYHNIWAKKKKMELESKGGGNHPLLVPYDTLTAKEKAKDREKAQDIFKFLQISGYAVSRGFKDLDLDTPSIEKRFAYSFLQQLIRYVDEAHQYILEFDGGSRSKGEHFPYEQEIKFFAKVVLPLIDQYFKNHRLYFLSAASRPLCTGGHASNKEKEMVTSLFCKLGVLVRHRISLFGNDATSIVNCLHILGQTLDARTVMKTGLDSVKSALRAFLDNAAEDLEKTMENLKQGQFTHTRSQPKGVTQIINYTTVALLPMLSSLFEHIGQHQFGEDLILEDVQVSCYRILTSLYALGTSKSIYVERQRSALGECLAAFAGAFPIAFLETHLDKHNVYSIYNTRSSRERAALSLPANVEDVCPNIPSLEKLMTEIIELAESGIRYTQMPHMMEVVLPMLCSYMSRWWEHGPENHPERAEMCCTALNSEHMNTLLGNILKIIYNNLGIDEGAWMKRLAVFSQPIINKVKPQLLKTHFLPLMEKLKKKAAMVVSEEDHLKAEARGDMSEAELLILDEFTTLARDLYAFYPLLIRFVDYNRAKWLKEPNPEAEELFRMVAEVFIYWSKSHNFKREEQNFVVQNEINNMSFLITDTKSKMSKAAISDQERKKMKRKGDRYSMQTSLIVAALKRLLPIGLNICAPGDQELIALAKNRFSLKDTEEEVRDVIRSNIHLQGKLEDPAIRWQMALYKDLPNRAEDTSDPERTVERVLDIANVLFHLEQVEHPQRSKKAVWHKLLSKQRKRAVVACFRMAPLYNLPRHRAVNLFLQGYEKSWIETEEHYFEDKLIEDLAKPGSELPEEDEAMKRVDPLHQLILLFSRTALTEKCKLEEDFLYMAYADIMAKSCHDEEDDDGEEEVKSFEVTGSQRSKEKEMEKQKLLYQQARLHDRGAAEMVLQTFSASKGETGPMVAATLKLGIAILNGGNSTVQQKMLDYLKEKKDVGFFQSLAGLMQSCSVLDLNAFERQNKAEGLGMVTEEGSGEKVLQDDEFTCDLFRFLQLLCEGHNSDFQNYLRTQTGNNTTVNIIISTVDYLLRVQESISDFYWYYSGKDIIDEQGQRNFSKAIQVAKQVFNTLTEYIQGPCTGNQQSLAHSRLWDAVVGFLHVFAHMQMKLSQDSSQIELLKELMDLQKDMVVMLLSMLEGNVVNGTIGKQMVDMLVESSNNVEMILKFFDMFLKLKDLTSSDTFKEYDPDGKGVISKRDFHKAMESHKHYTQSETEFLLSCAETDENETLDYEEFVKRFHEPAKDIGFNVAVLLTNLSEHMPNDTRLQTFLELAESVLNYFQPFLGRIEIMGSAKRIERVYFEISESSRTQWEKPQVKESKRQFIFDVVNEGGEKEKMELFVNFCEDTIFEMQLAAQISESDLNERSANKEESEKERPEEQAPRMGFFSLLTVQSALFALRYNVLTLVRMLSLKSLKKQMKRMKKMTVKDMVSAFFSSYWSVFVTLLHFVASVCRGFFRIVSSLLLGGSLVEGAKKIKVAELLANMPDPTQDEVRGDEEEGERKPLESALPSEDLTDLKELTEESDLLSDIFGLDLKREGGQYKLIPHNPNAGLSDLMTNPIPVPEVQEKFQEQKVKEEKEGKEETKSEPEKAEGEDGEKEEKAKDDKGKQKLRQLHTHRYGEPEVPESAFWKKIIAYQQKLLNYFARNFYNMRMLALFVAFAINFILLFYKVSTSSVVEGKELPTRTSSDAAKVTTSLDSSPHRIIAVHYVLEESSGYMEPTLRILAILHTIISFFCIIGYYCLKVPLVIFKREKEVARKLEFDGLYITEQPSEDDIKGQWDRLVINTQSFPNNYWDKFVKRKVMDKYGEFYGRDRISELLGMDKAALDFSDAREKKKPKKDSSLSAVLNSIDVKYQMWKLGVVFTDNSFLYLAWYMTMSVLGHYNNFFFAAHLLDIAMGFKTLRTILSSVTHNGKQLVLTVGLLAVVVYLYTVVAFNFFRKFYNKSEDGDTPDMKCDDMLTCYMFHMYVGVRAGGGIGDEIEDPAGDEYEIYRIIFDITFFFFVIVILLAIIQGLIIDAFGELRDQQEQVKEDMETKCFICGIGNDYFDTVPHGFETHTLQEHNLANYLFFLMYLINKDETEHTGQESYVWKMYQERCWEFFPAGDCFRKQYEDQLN
The data set is described as follows: Single RyR2 channel measurements in planar lipid bilayers. It is filed as biochemical. As to conditions: for EC50: 50% of maximum increase of open probability; for Kd: PO at 0.5–2 μM peptide, cytosolic Ca2+ 100 nM, read-out: Kp, dissociation constant of DPcpvtN2; for POmax, maximum open probability: PO0 0.0039. The procedure:
All experimental protocols were approved by the State veterinary and food administration of the Slovak Republic (Ro-3820/05-221, Ro-2821/09-221) and by the ethical committee of the Centre of Biosciences. All methods were carried out in accordance with the European directive 2010/63/EU. Male rats (Wistar Han, 240–310 g, breeding station Dobra Voda, reg. No. SK CH 24011, Slovak Republic) were anesthetized with sodium pentobarbital (50 mg kg^−1 i.p.), the hearts were excised, and cardiac SR microsomes were isolated from rat heart ventricles by differential centrifugation without further purification steps, as previously described (Gaburjakova and Gaburjakova, [2006]; Faltinova and Zahradnikova, [2013]), snap frozen in liquid nitrogen and stored at −70°C.
Preparation of bilayers, incorporation of channels and electrophysiological measurements were performed as previously described (Faltinova and Zahradnikova, [2013]). In brief, bilayer lipid membranes were formed over a 20–50 μm aperture in a polystyrene chamber. The aperture was first treated with a solution (26 mg/ml) of DOPS, DOPC and DPPC (3:5:5) in N-decane (Aldrich, USA). After evaporation of N-decane, the cis and trans compartments of the bilayer chamber were filled with the solutions (in mmol/l): cis, 250 HEPES, 50 KCl, 1 EGTA, 125 TRIS, 0.5 CaCl2, pH 7.35, [Ca^2+] = 90 nM; trans, 30 HEPES, 50 KCl, 1 Ca(OH)2, 7 Ba(OH)2, pH 7.35, and the bilayer was formed using a mixture of DOPS and DOPE (3:10; 26 mg/ml in N-decane). After formation of a bilayer, RyR2 channels were incorporated from a suspension of microsomal vesicles of the SR, added to the cis compartment. RyR identity was checked at the beginning of the experiment at high Ca^2+, when it was characteristic by its single-channel amplitude and open duration (Tencerova et al., [2012]; Faltinova and Zahradnikova, [2013]). Under the above ionic conditions, no other channels have similar properties. Detection of RyR channel was followed by perfusion to a basal Ca^2+ level. The identity of RyR was occasionally further tested at the end of the experiment by addition of 100 μM Ca^2+.
Currents through the incorporated single RyR2 channels were measured in voltage-clamp mode at 0 mV with MultiClamp 700B amplifier (Molecular Devices, USA) with a 50 GΩ feed-back resistor. The signal was filtered by a 4-pole Bessel filter at 1 kHz and digitized using an A/D converter (Digidata 1440A, Molecular Devices, USA) at a frequency of 4 kHz. Acquisition and analysis were performed using pClamp software (Ver. 10, Molecular Devices, USA) and Origin Pro (Ver. 9, OriginLab Corporation, USA).
Equilibrium open probabilities for different gating models (Equations 1–3) were determined from the gating schemes. Equations were derived using Mathematica (Ver. 10, Wolfram Research, USA) as previously described (Zahradnik et al., [2005]). The value of EC50 was calculated in Mathematica from Equations (1) to (3) as the ligand concentration, at which the increase of open probability reached 50% of maximum increase.

Data set [3] can be described thus: CD spectroscopy (secondary structure). It is filed as physicochemical. The protocol: Circular dichroism (CD) measurements were performed using a Jasco J-810 spectropolarimeter (Japan). CD measurements were performed in the 198–250 nm wavelength range, which enabled estimation of the secondary structure of the peptide. The DPcpvtN2 peptide was dissolved either in 2 mM Na-phosphate (pH 7.0) or in 99.8% ethanol to a final concentration of 1.5–7 μM. CD spectra were expressed as averages of 3–5 consecutive scans. 1 mm cuvette was used for measurements. Typically, a time constant of 2 s, bandwidth of 2.0 nm, scanning speed 200 nm/min and the standard sensitivity were used. The spectra were analyzed using the web server CAPITO (Wiedemann et al., [2013]), which provides the percentage of α-helical, β-sheet and random coil in the secondary structure.

Turning to `O=S(=O)(O)c1cc(N=C=S)ccc1C=Cc1ccc(N=C=S)cc1S(=O)(=O)O` [DIDS], in data set [1], the “Effect on RyR2 activity” value was “all-or-none”.
In general, EC50 refers to the midpoint of the concentration-response curve. Regarding “HEESRTARVIRSTVFLFBRFIRGLDALSK (HEESRTARVIRSTVFLFXRFIRGLDALSK; not fully specified) [DPcpvtN2, domain peptide containing amino acids 410–438 of human RyR2, the central helix of the N-terminal region]”, the half-maximal effective concentration (EC50) in data set [2] (calculated from Equation (1), gating scheme GS1) was 66.4 µM; in data set [2] (calculated from Equation (2), gating scheme GS2), 17.6 µM; in data set [2] (calculated from Equation (3), gating scheme GS3), 0.41 µM. Moreover, the Kd is 351 ± 99 µM in data set [2] (fit by gating scheme GS1 (Equation 1: one peptide bound opens channel), 0 mV, n = 9 channels) and 3.35 ± 0.56 µM in data set [2] (fit by gating scheme GS2 (Equation 2: four peptides bound open channel; fit rejected), 0 mV, n = 9 channels).
On to “HEESRTARVIRSTVFLFBRFIRGLDALSK [DPcpvtN2, domain peptide containing amino acids 410–438 of human RyR2, the central helix of the N-terminal region]”, for which, in data set [2] (0.5–2 μM, cis side, diastolic conditions (100 nM cytosolic Ca2+, 1 mM luminal Ca2+, 0 mV), 2-min recording, n = 9 channels), the “Effect on RyR2 open probability” value is “Increase in open probability and the presence of long openings could be observed at all DPcpvtN2 concentrations”. The “Time to occurrence of long openings after addition” value in data set [2] (0.5–2 μM, diastolic conditions, 0 mV) is recorded as at most 1 min. In addition, in data set [2] (0.5–2 μM, diastolic conditions, 0 mV, control openings tO ~ 15 ms), the “Open time (tO) of long openings” value is over 100 ms. The “fp, allosteric factor” value in data set [2] (fit by gating scheme GS3 (Equation 3), couples DPcpvtN2 binding to channel opening) is recorded as 0.61 ± 0.10. Moreover, the “POmax, maximum open probability” value was determined as 1 in data set [2] (gating scheme GS1), 1 in data set [2] (gating scheme GS2) and 0.0275 in data set [2] (gating scheme GS3). In data set [2] (inferred from concentration dependence of RyR open probability), the “Reversibility of the interaction between channel and peptide” value is listed as “readily reversible”. In addition, the “Ellipticity in ethanol compared with aqueous solution” value in data set [3] (1.5–3 μM, ethanol vs. phosphate buffer pH 7.0) was “an order of magnitude higher”. Moreover, in data set [3] (CD spectra, 1.5–3 μM in phosphate buffer pH 7.0 or ethanol (solvent of the estimate not specified), CAPITO web server), the “Content of α-helix” value is 99%.

The values above are taken from article PMC5492033, “The N-Terminal Region of the Ryanodine Receptor Affects Channel Activation” (Frontiers in Physiology, 2017).
